Laboratory results published in US20190367448A1, “TREATMENT OF SLEEP-WAKE DISORDERS” (SK Biopharmaceuticals Co., Ltd., priority 2005, published 2019).

Test system: male adult Sprague Dawley rats
Assay: Sleep-wake organization in rats, polysomnographic recording (EEG, EOG, EMG, body movement) for 16 hours after acute i.p. administration
Format: in vivo, rat
Conditions: for Duration (min) Active wake / Duration (min) Deep sleep / Duration (min) Light sleep / Duration (min) Passive wake / Duration (min) REM sleep / Duration (min) intermediate stage / ISWS/TST (%) / Latency (min) ISWS / Latency (min) REM sleep / Latency (min) dSWS / REMS/TST (%) / Shifts (number) Shift from ISWS to AW / Shifts (number) Shift from ISWS to PW / Shifts (number) Shift from REMS to AW / Shifts (number) Shift from REMS to PW / Shifts (number) Shift from dSWS to AW / Shifts (number) Shift from dSWS to PW / Total sleep time TST / dSWS/TST (%): 16 hours recording period; for change in mean duration of REM sleep stage / change in number of REM sleep epochs / change in number of active wake epochs / change in number of deep sleep epochs / change in number of light sleep epochs / change in total time spent in REM sleep / change in total time spent in active wakefulness / change in total time spent in deep (rebound) sleep / change in total time spent in light sleep / change in mean duration of deep sleep stage: 16 hours recording; for change in total time spent in REM sleep / change in total time spent in active wakefulness / change in total time spent in deep (rebound) sleep / change in total time spent in light sleep: vs vehicle

In the case of `CC(N)Cc1ccccc1` (stereo not shown) [Amphetamine, amphetamine], the “period of enhanced active wakefulness” value (rats, 1 mg/kg) is reported as 3 h, the “period of reduction in light, deep and REM sleep durations” value (from here on “period of reduction in light”) (rats, 1 mg/kg) is reported as 3 h and the “Duration (min) Active wake” value (rats, 1 mg/kg i.p.) is reported as 382.4 min. The “Duration (min) Deep sleep” value (rats, 1 mg/kg i.p.) was 188.0 min, the “Duration (min) Light sleep” value (rats, 1 mg/kg i.p.) was 242.7 min and the “Duration (min) Passive wake” value (rats, 1 mg/kg i.p.) was 50.0 min. The “Duration (min) REM sleep” value (rats, 1 mg/kg i.p.) was 88.6 min, the “Duration (min) intermediate stage” value (rats, 1 mg/kg i.p.) was 4.0 min and the “ISWS/TST (%)” value (rats, 1 mg/kg i.p.) was 45.1 ± 5.3 %. The “Latency (min) ISWS” value (rats, 1 mg/kg i.p.) was 140.6 ± 13.4 min, the “Latency (min) REM sleep” value (rats, 1 mg/kg i.p.) was 208.6 ± 14.4 min and the “Latency (min) dSWS” value (rats, 1 mg/kg i.p.) was 161.7 ± 5.3 min. For the same compound, the “REMS/TST (%)” value (rats, 1 mg/kg i.p.) was 16.9 ± 0.9%, the “Shifts (number) Shift from ISWS to AW” value (rats, 1 mg/kg i.p.) was 198.8 number and the “Shifts (number) Shift from ISWS to PW” value (rats, 1 mg/kg i.p.) was 64.4 number. The “Shifts (number) Shift from REMS to AW” value (rats, 1 mg/kg i.p.) was 66.5 number, the “Shifts (number) Shift from REMS to PW” value (rats, 1 mg/kg i.p.) was 5.8 number and the “Shifts (number) Shift from dSWS to AW” value (rats, 1 mg/kg i.p.) was 11.7 number. The “Shifts (number) Shift from dSWS to PW” value (rats, 1 mg/kg i.p.) was 37.7 number, the “Total sleep time TST” value (rats, 1 mg/kg i.p.) was 523.3 ± 25.3 min and the “dSWS/TST (%)” value (rats, 1 mg/kg i.p.) was 36.6 ± 5.7 %. The “change in mean duration of REM sleep stage” value (“change … of REM sleep stage” for short) (rats, 1 mg/kg) was −16%, the “change in number of REM sleep epochs” value (rats, 1 mg/kg) was −4% and the “change in number of active wake epochs” value (rats, 1 mg/kg) was “+27%”. For the same compound, the “change in number of deep sleep epochs” value (rats, 1 mg/kg) was “+73%”, the “change in number of light sleep epochs” value (rats, 1 mg/kg) was −35% and the “change in total time spent in REM sleep” value (rats, 1 mg/kg) was −4%. The “change in total time spent in active wakefulness” value (from here on “change … in active wakefulness”) (rats, 1 mg/kg) was “+27%”, the “change in total time spent in deep (rebound) sleep” value (shortened to “change … (rebound) sleep”) (rats, 1 mg/kg) was “+73%” and the “change in total time spent in light sleep” value (from here on “change … in light sleep”) (rats, 1 mg/kg) was −35%. For the same compound, the “period of enhanced active wakefulness” value (rats, 3 mg/kg) was 4 h, the “period of reduction in light” value (rats, 3 mg/kg) was 4 h and the “Duration (min) Active wake” value (rats, 3 mg/kg i.p.) was 441.8 min. For the same compound, the “Duration (min) Deep sleep” value (rats, 3 mg/kg i.p.) was 207.6 min, the “Duration (min) Light sleep” value (rats, 3 mg/kg i.p.) was 187.9 min and the “Duration (min) Passive wake” value (rats, 3 mg/kg i.p.) was 43.5 min. The “Duration (min) REM sleep” value (rats, 3 mg/kg i.p.) was 71.4 min, the “Duration (min) intermediate stage” value (rats, 3 mg/kg i.p.) was 4.0 min and the “ISWS/TST (%)” value (rats, 3 mg/kg i.p.) was 38.3 ± 3.4 %. The “Latency (min) ISWS” value (rats, 3 mg/kg i.p.) was 228.2 ± 25.0 min, the “Latency (min) REM sleep” value (rats, 3 mg/kg i.p.) was 338.6 ± 24.3 min and the “Latency (min) dSWS” value (rats, 3 mg/kg i.p.) was 242.0 ± 19.4 min. The “REMS/TST (%)” value (rats, 3 mg/kg i.p.) was 14.7 ± 0.7%, the “Shifts (number) Shift from ISWS to AW” value (rats, 3 mg/kg i.p.) was 178.7 number and the “Shifts (number) Shift from ISWS to PW” value (rats, 3 mg/kg i.p.) was 62.4 number. The “Shifts (number) Shift from REMS to AW” value (rats, 3 mg/kg i.p.) was 59.3 number, the “Shifts (number) Shift from REMS to PW” value (rats, 3 mg/kg i.p.) was 3.3 number and the “Shifts (number) Shift from dSWS to AW” value (rats, 3 mg/kg i.p.) was 14.8 number. The “Shifts (number) Shift from dSWS to PW” value (rats, 3 mg/kg i.p.) was 26.6 number, the “Total sleep time TST” value (rats, 3 mg/kg i.p.) was 460.9 ± 12.0 min and the “dSWS/TST (%)” value (rats, 3 mg/kg i.p.) was 46.0 ± 3.0 %. The “change … of REM sleep stage” value (rats, 3 mg/kg) was −23%, the “change in mean duration of deep sleep stage” value (rats, 3 mg/kg) was −19% and the “change in number of REM sleep epochs” value (rats, 3 mg/kg) was −22%. For the same compound, the “change in number of active wake epochs” value (rats, 3 mg/kg) was “+47%”, the “change in number of deep sleep epochs” value (rats, 3 mg/kg) was “+91%” and the “change in number of light sleep epochs” value (rats, 3 mg/kg) was −49%. The “change in total time spent in REM sleep” value (rats, 3 mg/kg) was −22%, the “change … in active wakefulness” value (rats, 3 mg/kg) was “+47%” and the “change … (rebound) sleep” value (rats, 3 mg/kg) was “+91%”. For the same compound, the “change … in light sleep” value (rats, 3 mg/kg) was −49%, the “period of enhanced active wakefulness” value (rats, 10 mg/kg) was 6 h and the “period of reduction in light” value (rats, 10 mg/kg) was 6 h. The “Duration (min) Active wake” value (rats, 10 mg/kg i.p.) was 498.7 min, the “Duration (min) Deep sleep” value (rats, 10 mg/kg i.p.) was 181.2 min and the “Duration (min) Light sleep” value (rats, 10 mg/kg i.p.) was 182.0 min. For the same compound, the “Duration (min) Passive wake” value (rats, 10 mg/kg i.p.) was 35.6 min, the “Duration (min) REM sleep” value (rats, 10 mg/kg i.p.) was 53.6 min and the “Duration (min) intermediate stage” value (rats, 10 mg/kg i.p.) was 4.0 min. For the same compound, the “ISWS/TST (%)” value (rats, 10 mg/kg i.p.) was 43.2 ± 5.7 %, the “Latency (min) ISWS” value (rats, 10 mg/kg i.p.) was 284.7 ± 56.1 min and the “Latency (min) REM sleep” value (rats, 10 mg/kg i.p.) was 440.8 ± 57.8 min. The “Latency (min) dSWS” value (rats, 10 mg/kg i.p.) was 367.3 ± 5.5 min, the “REMS/TST (%)” value (rats, 10 mg/kg i.p.) was 13.0 ± 0.9% and the “Shifts (number) Shift from ISWS to AW” value (rats, 10 mg/kg i.p.) was 201.7 number. For the same compound, the “Shifts (number) Shift from ISWS to PW” value (rats, 10 mg/kg i.p.) was 49.0 number, the “Shifts (number) Shift from REMS to AW” value (rats, 10 mg/kg i.p.) was 50.0 number and the “Shifts (number) Shift from REMS to PW” value (rats, 10 mg/kg i.p.) was 2.2 number. For the same compound, the “Shifts (number) Shift from dSWS to AW” value (rats, 10 mg/kg i.p.) was 9.7 number, the “Shifts (number) Shift from dSWS to PW” value (rats, 10 mg/kg i.p.) was 11.6 number and the “Total sleep time TST” value (rats, 10 mg/kg i.p.) was 422.9 ± 19.5 min. For the same compound, the “dSWS/TST (%)” value (rats, 10 mg/kg i.p.) was 42.9 ± 5.3 %, the “change … of REM sleep stage” value (rats, 10 mg/kg) was −36% and the “change in mean duration of deep sleep stage” value (rats, 10 mg/kg) was −30%. The “change in number of REM sleep epochs” value (rats, 10 mg/kg) was −41%, the “change in number of active wake epochs” value (rats, 10 mg/kg) was “+66%” and the “change in number of deep sleep epochs” value (rats, 10 mg/kg) was “+66%”. For the same compound, the “change in number of light sleep epochs” value (rats, 10 mg/kg) was −51%, the “change in total time spent in REM sleep” value (rats, 10 mg/kg) was −41% and the “change … in active wakefulness” value (rats, 10 mg/kg) was “+66%”. The “change … (rebound) sleep” value (rats, 10 mg/kg) was “+66%”, the “change … in light sleep” value (rats, 10 mg/kg) was −51% and the “latencies of all sleep states” value (rats, 1, 3, 10 mg/kg) was “significantly increased”. For the same compound, the “mean duration of light sleep” value (rats, 1, 3, and 10 mg/kg) was “not significantly modified”, the “mean duration of active wake” value (rats, different doses (1, 3, 10 mg/kg)) was “not modified” and the “period of increased wakefulness and reduced sleep states following administration” value (rats, dose-dependent, 1, 3, 10 mg/kg) was 3 to 8 h. For the same compound, the “effect on the time spent in deep sleep stage” value (rats, reduced during 3-6 hours following the injection, then increased (rebound)) was “biphasic effect”.
